Patent US5660992A, “Sialic acid/fucose based assay reagents and assay methods” (Glycomed Incorporated, priority 1995, dated 1997)

Columns and labels:
L-selectin IgG chimera = target: T1, L-selectin IgG chimera (Homo sapiens, UniProt P14151); assay: ELISA: blocking of L-selectin IgG chimera binding to 2,3sLex glycolipid; conditions: FIG. 5 and FIG. 6; several concentrations
T1 sequence (P14151 39-332 limits assumed): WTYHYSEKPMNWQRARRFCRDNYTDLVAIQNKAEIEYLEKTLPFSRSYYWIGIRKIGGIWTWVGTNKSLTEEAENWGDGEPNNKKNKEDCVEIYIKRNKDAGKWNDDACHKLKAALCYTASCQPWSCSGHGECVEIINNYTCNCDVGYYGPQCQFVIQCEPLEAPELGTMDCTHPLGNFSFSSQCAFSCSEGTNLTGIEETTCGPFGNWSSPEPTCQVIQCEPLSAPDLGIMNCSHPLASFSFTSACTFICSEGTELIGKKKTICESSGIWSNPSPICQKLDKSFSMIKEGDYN
Source text: FIG. 5 is a graph showing the results of Elisa assays carried out to determine the ability of three different compounds to block the binding of 2,3,sialyl-Le^x to L-selectin IgG chimera. The compounds tested were GM 1222, GM 1279 and GM 1398. The results are expressed as per cent of control binding.
FIG. 6 is a graph showing the results of Elisa assays carried out to determine the ability of GM 1221 to block the binding of 2,3,sialyl-Le^x to L-selectin IgG chimera. The results are expressed as per cent of control binding.
An ELISA assay was employed that uses recombinant fusion proteins composed of extracellular portions of the human selectins joined to human immunoglobulin heavy chain CH3, CH2, and hinge regions. See, for example, Walz et al., Science (1990) 250:1132; Aruffo et al., Cell (1991) 67:35; Aruffo et al., Proc. Natl. Acad. Sci. USA (1992) 89:2292. […]
The positive control is the signal produced by the soluble receptor when it is allowed to react with 2,3sLex glycolipid in the microtiter wells in the absence of any inhibitor. […] The signal produced by the receptor that had been previously treated with an inhibitor (recorded as O.D.), was divided by the signal produced by the positive control and multiplied by 100 to calculate the % receptor bound to the well, or as expressed in the figures, the per cent of control binding. […]

[1] = tested on: neutrophil migration to the peritoneal cavity; assay: Murine thioglycollate induced peritonitis model; assay type: in vivo, mice; conditions: FIG. 7; for inhibition of neutrophil migration into the peritoneum: female Swiss Webster mice, compound in tail vein, thioglycollate i.p., cells counted after three hours
Method: Mice were injected with saline alone (sal/-), thioglycollate and phosphate buffered saline (TG/PBS) or thioglycollate and GM 1221 or GM 1398 (TG/GM 1221 or TG/1398), and the number of neutrophils in the peritoneal cavity measured.
The efficaciousness of GM 1221, and GM 1398 was shown using a murine thioglycollate induced peritonitis model. The assay. materials and methods are known in the art, or are generally described by Lewinsohn, D. et al., J. Immun., 138:4313-4321 (1987), or Watson, S. et.al., Nature 349:164-166 (1991).
This assay measures the ability of the compounds to inhibit neutrophil migation to the peritoneal cavity, the migration being initiated by the presence of thioglycollate in the peritoneal cavity. Thioglycollate is a known and effective inflammatory agent that causes neutrophil migration into the mouse peritoneum when it is administered intraperitoneally. Lewinsohn, D. et al., J. Immun. (1987) 138:4313-4321.
Briefly, female Swiss Webster mice weighing about 25 grams were injected in the tail vein with 200 ul of phosphate buffered saline (PBS) with or without the appropriate compound. The pH of the solutions was adjusted to neutrality by the addition of either NaOH or HCL and sterilized by filtration through a 0.2 u filter.
Immediately following injection with the appropriate compound or PBS, the mice were injected intraperitoneally with 1 ml of thioglycollate medium prepared as described by the manufacturer, BBL. Three hours following injection of the thioglycollate solution the mice were sacrificed by CO2 asphyxiation, and the number of cells in the peritoneum removed by lavage with 5 ml of heparinized (5 U/ml) 0.9% sodium chloride solution containing 0.1% bovine serum albumin. Cell number was determined using a Coulter Counter. The cells were prepared for counting by diluting the lavage fluid with 1:50 of a commercial physiological isotonic solution, Isoton II, and the cells-lysed by adding S/P Lysing and Hemoglobin Reagent (1:100 final dilution). Cell nuclei were counted in a sized window with lower and upper limits set at 3.9 and 5.7 um, respectively.

| inhibition of L-selectin binding to 2,3sLex glycolipid (per cent of control binding) (L-selectin IgG chimera) | SMILES | inhibition of neutrophil migration into the peritoneum [1] | additional inhibition of neutrophil migration relative to GM 1221 ([1]; same mouse peritonitis model, comparison with GM 1221) |
| --- | --- | --- | --- |
| inhibits L-selectin binding | CC(OCCCCCCOC1O[C@@H](C)[C@@H](O)[C@@H](O)[C@@H]1O)C(=O)O (stereo partly shown) [GM 1221] | inhibit neutrophil migration into the peritoneum | – |
| – | CC(=O)N[C@H]1[C@H]([C@H](O)[C@H](O)CO)O[C@@](OCCCCCCO[C@@H]2O[C@@H](C)[C@@H](O)[C@@H](O)[C@@H]2O)(C(=O)O)C[C@@H]1O [GM 1398, 1-O-α-Neu5Ac-(6-O-α-L-Fucopyranosyl)-Hexane] | inhibit neutrophil migration into the peritoneum | about 30% |
